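Method: 48-hour compound exposure of cells in 96-well plates, five concentrations, linear interpolation of endpoints. At the GI50, growth is halved.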 Calls of active or inactive are those of the source. Rule as the data show it: active = GI50 up to about 1.1 µM and inactive = higher. Bounds are passed on as bounds.

Some test systems named below: HT-29; A498; OVCAR-8; CCRF-CEM; SN12C; BT-549; SR; TK-10; NCI/ADR-RES; SNB-19; A549; 786-0; OVCAR-3; MDA-N; EKVX; LOX IMVI; SF-268; HCT-116; SK-OV-3; RXF 393.
Holding throughout (assay): NCI tumour cell line growth inhibition, 48 h

As for `CC(=O)OCC1C(C(C)OC(C)=O)CCC2C1CCC1(C)C(OC(C)=O)CCC21` (centres undefined), the GI50 was 16 µM (inactive) in the test on HT-29; 19.7 µM (inactive) in the test with A498; 19.7 µM (inactive) in the test with OVCAR-8; 19.8 µM (inactive) with CCRF-CEM; 18 µM (inactive) in the test on SN12C; 11.6 µM (inactive) with BT-549. Besides, the GI50 with SR is 23.7 µM (inactive); with TK-10, > 100 µM (inactive); in the test on NCI/ADR-RES, 17 µM (inactive); with SNB-19, 20.4 µM (inactive); in the test on A549, 18.9 µM (inactive); in the test on 786-0, 22.6 µM (inactive). The GI50 is 20.5 µM (inactive) in the test with OVCAR-3; 18.6 µM (inactive) in the test with MDA-N; 15.6 µM (inactive) in the test with EKVX; 14.7 µM (inactive) in the test with LOX IMVI; 23.9 µM (inactive) with SF-268; 15.8 µM (inactive) in the test with HCT-116.

Consider `CC(=O)O[C@H]1C[C@H](O[C@H]2[C@@H](O)C[C@H](O[C@H]3[C@@H](O)C[C@H](O[C@H]4CC[C@@]5(C)[C@H](CC[C@@H]6[C@@H]5C[C@@H](O)[C@]5(C)[C@@H](C7=CC(=O)OC7)CC[C@]65O)C4)O[C@@H]3C)O[C@@H]2C)O[C@H](C)[C@H]1O[C@@H]1O[C@H](CO)[C@@H](O)[C@H](O)[C@H]1O` [LANATOSIDE C], for which the GI50 in the test with HT-29 is 0.048 µM (active); with A498 it was 0.0897 µM (active); in the test on OVCAR-8, 0.0612 µM (active); with BT-549, 0.044 µM (active); with SK-OV-3, 0.0597 µM (active); in the test with SR, 0.1 µM (active). For the same compound, the GI50 with TK-10 was 0.0454 µM (active); in the test on NCI/ADR-RES, 0.0364 µM (active); in the test on SNB-19 it was 0.168 µM (active); in the test on A549, 0.0146 µM (active); with 786-0, 0.0322 µM (active); with OVCAR-3, 0.041 µM (active). The GI50 is 0.156 µM (active) in the test with MDA-N; 0.0284 µM (active) in the test on EKVX; 0.042 µM (active) in the test with LOX IMVI; 0.0436 µM (active) in the test on SF-268; 0.0324 µM (active) in the test with HCT-116.

Take `C[C@H](CS)C(=O)N1c2ccccc2C[C@H]1C(=O)O`: the GI50 with HT-29 was 97.1 µM (inactive); with A498, > 100 µM (inactive); in the test on OVCAR-8, > 100 µM (inactive); in the test on CCRF-CEM, > 100 µM (inactive); in the test with SN12C, > 100 µM (inactive); in the test on BT-549, > 100 µM (inactive). The GI50 in the test on SK-OV-3, with SR, with TK-10, in the test on NCI/ADR-RES, with SNB-19 and in the test with A549 was > 100 µM (inactive) each time. Moreover, the GI50 in the test with 786-0, with OVCAR-3, in the test on MDA-N, in the test with EKVX, in the test on SF-268 and with HCT-116 was > 100 µM (inactive) in each case.

Consider `CC(C)(C)[Si](C)(C)OCC1OC(n2ccc(N)nc2=O)C(O[Si](C)(C)C(C)(C)C)C1O[Si](C)(C)C(C)(C)C` (centres undefined), for which the GI50 is 1.56 µM (inactive) with HT-29; 2.33 µM (inactive) in the test with OVCAR-8; 3.65 µM (inactive) with SN12C; 1.62 µM (inactive) in the test with BT-549; 2.75 µM (inactive) in the test on SK-OV-3; 2.73 µM (inactive) with SR. The GI50 in the test with NCI/ADR-RES is 15.8 µM (inactive); with SNB-19, 3.24 µM (inactive); with A549, 3.44 µM (inactive); in the test on 786-0, 1.59 µM (inactive); in the test with OVCAR-3, 1.73 µM (inactive); in the test with MDA-N it was 3.89 µM (inactive). The GI50 with EKVX is 3.22 µM (inactive); in the test with LOX IMVI, 1.71 µM (inactive); with SF-268 it was 2.56 µM (inactive); in the test on HCT-116, 3.14 µM (inactive).

On to `CCOC(=O)c1c[nH]c(C(=O)OCC)c1-c1cccn1-c1ccccc1`, for which the GI50 was 26.4 µM (inactive) in the test with HT-29; 27 µM (inactive) with A498; 19.2 µM (inactive) in the test on OVCAR-8; 17.9 µM (inactive) in the test with CCRF-CEM; 27 µM (inactive) with SN12C; 25.3 µM (inactive) with BT-549. In addition, the GI50 with SK-OV-3 is 28.4 µM (inactive); in the test with TK-10 it was 36 µM (inactive); with NCI/ADR-RES it was 19.1 µM (inactive); in the test with SNB-19, 31.7 µM (inactive); in the test on A549, 26.6 µM (inactive); in the test with 786-0 it was 22.8 µM (inactive). For the same compound, the GI50 with OVCAR-3 was 16.8 µM (inactive); in the test with RXF 393 it was 16 µM (inactive); with MDA-N, 31.7 µM (inactive); in the test on EKVX, 24.8 µM (inactive); in the test on LOX IMVI, 16.9 µM (inactive); in the test on SF-268 it was 25.5 µM (inactive). The GI50 in the test on HCT-116 was 15.6 µM (inactive).

For the compound `CN(CCCN(C)CCc1ccc(Cl)c(Cl)c1)CCCN1CCCC1`, the GI50 in the test on HT-29 is 0.55 µM (active); in the test with A498, 1.76 µM (inactive); with OVCAR-8, 2.82 µM (inactive); in the test on CCRF-CEM it was 0.458 µM (active); in the test with SN12C, 3.12 µM (inactive); in the test with BT-549, 6.03 µM (inactive). Besides, the GI50 in the test on SK-OV-3 was 10.2 µM (inactive); in the test with TK-10, 2.05 µM (inactive); in the test with NCI/ADR-RES it was 6.08 µM (inactive); in the test on SNB-19, 3.61 µM (inactive); in the test with A549 it was 2.97 µM (inactive); in the test on 786-0, 1.26 µM (inactive). The GI50 was 3.72 µM (inactive) in the test on OVCAR-3; 1.61 µM (inactive) in the test on RXF 393; 1.31 µM (inactive) with MDA-N; 3.35 µM (inactive) in the test with EKVX; 1.52 µM (inactive) in the test on LOX IMVI; 2.12 µM (inactive) in the test with SF-268. For the same compound, the GI50 with HCT-116 was 1.73 µM (inactive).

For the compound `Cc1ccc(NC(=O)C23CC4CC(CC(C4)C2)C3)c(C(=O)NNC(=O)c2ccc(Cl)cc2)c1`, the GI50 with HT-29 was 23.7 µM (inactive); with OVCAR-8, 30.2 µM (inactive); in the test on CCRF-CEM it was 21.1 µM (inactive); in the test on SN12C it was 28.4 µM (inactive); with BT-549, 35.9 µM (inactive); in the test on SK-OV-3 it was 15.8 µM (inactive). In addition, the GI50 in the test on SR was 13.7 µM (inactive); with TK-10, 17.7 µM (inactive); with NCI/ADR-RES, 21.2 µM (inactive); with SNB-19, 1.41 µM (inactive); with A549, 20 µM (inactive); in the test on 786-0, 20.2 µM (inactive). For the same compound, the GI50 in the test with OVCAR-3 was 20.7 µM (inactive); in the test with RXF 393 it was 15 µM (inactive); in the test with MDA-N it was 20.2 µM (inactive); with EKVX, 18.5 µM (inactive); in the test with LOX IMVI, 17 µM (inactive); in the test with SF-268, 23.8 µM (inactive). Besides, the GI50 in the test on HCT-116 was 25.8 µM (inactive).

Turning to `c1cncc(CC2(c3cc4ccccc4[nH]3)OCCO2)c1`, the GI50 was > 100 µM (inactive) in the test on HT-29; > 100 µM (inactive) in the test with A498; > 100 µM (inactive) in the test on OVCAR-8; > 100 µM (inactive) with CCRF-CEM; > 100 µM (inactive) in the test on SN12C; 66.1 µM (inactive) in the test with BT-549. In addition, the GI50 in the test with SK-OV-3 is > 100 µM (inactive); with SR, 85.5 µM (inactive); in the test on TK-10, > 100 µM (inactive); with NCI/ADR-RES it was > 100 µM (inactive); with SNB-19 it was > 100 µM (inactive); with A549, 81.8 µM (inactive). Further, the GI50 in the test with 786-0, in the test on MDA-N, in the test on LOX IMVI, in the test with SF-268 and in the test on HCT-116 was > 100 µM (inactive) in each case.

On to `CC(=O)NN(c1ccccc1)C1CCN(c2ccccc2)N1C(C)=O` (centres undefined), for which the GI50 was 5.74 µM (inactive) in the test on HT-29; > 10 µM (inactive) in the test with OVCAR-8; > 10 µM (inactive) in the test on CCRF-CEM; > 10 µM (inactive) in the test with SN12C; > 10 µM (inactive) in the test with BT-549; > 10 µM (inactive) with SK-OV-3. Besides, the GI50 with SR is 6.25 µM (inactive); in the test with TK-10 it was > 10 µM (inactive); in the test on NCI/ADR-RES it was 5.52 µM (inactive); in the test with SNB-19, > 10 µM (inactive); in the test with A549 it was > 10 µM (inactive); in the test on 786-0 it was > 10 µM (inactive). The GI50 is > 10 µM (inactive) in the test with OVCAR-3; > 10 µM (inactive) in the test on RXF 393; 9.16 µM (inactive) with MDA-N; > 10 µM (inactive) in the test on EKVX; 4.58 µM (inactive) in the test on LOX IMVI; 5.07 µM (inactive) in the test with SF-268. In addition, in the test on HCT-116, the GI50 was 9.84 µM (inactive).

For the compound `CNC(=O)N(CCC#N)[C@H]1CCCC[C@@H]1N(C(=O)NC)c1ccccc1`, the GI50 with HT-29, in the test with OVCAR-8, in the test with CCRF-CEM, in the test on SN12C, in the test with BT-549 and with SK-OV-3 was > 100 µM (inactive) each time. Moreover, the GI50 in the test with SR, in the test with TK-10, in the test with NCI/ADR-RES, in the test on SNB-19, in the test on A549 and in the test on 786-0 was > 100 µM (inactive) in each case. For the same compound, the GI50 with OVCAR-3, in the test on RXF 393, in the test with MDA-N, in the test on EKVX, with LOX IMVI and in the test with HCT-116 was > 100 µM (inactive) throughout.

Regarding `CCOC(=O)c1cc2cc(N(C(C)=O)C(C)=O)ccc2s1`, the GI50 in the test with HT-29 was 20 µM (inactive); in the test with A498 it was 13.8 µM (inactive); in the test on OVCAR-8, 26.8 µM (inactive); with CCRF-CEM, 21.9 µM (inactive); with SN12C, 19.7 µM (inactive); in the test on BT-549 it was 29.9 µM (inactive). The GI50 with SK-OV-3 was 30.4 µM (inactive); in the test on TK-10, 56.6 µM (inactive); in the test on NCI/ADR-RES, 33.7 µM (inactive); in the test on SNB-19, 36.9 µM (inactive); in the test on A549, 36.1 µM (inactive); in the test on 786-0, 27.2 µM (inactive). Besides, the GI50 in the test with OVCAR-3 is 30.8 µM (inactive); in the test on RXF 393 it was 13.5 µM (inactive); in the test with MDA-N it was 29.2 µM (inactive); in the test on EKVX it was 20.6 µM (inactive); in the test with LOX IMVI, 33.5 µM (inactive); in the test on SF-268, 23.2 µM (inactive). Further, the GI50 with HCT-116 was 29.5 µM (inactive).

Source of the values: ChEMBL document CHEMBL1201862, “PubChem BioAssay data set” (2004).
